# From ChEMBL document CHEMBL1201862, “PubChem BioAssay data set” (2004)
# The source made the active and inactive calls.
# Columns and labels:
# [1] = biological target: T1, Mannose-6-phosphate isomerase (Homo sapiens, UniProt P34949); experiment: human PMI inhibitors, high substrate, primary screen, biochemical, fluorescence intensity, high mannose 6-phosphate (AID 1220)
# T1 sequence (P34949 whole entry): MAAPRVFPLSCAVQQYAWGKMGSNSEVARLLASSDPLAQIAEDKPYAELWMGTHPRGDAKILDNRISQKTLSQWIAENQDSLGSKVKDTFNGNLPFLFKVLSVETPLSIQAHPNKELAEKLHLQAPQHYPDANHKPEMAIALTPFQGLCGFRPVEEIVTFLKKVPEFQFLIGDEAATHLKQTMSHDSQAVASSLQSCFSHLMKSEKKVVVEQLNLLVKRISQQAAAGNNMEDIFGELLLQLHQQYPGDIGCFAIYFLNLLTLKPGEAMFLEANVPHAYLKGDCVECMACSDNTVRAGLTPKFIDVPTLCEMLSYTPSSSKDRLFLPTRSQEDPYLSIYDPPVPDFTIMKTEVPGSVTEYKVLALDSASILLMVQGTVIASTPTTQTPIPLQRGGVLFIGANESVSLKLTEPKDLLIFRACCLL
# [2] = biological target: T2, Carboxy-terminal domain RNA polymerase II polypeptide A small phosphatase 1 (Homo sapiens, UniProt Q9GZU7); experiment: inhibitors of CTDSP1, concentration-response testing, biochemical assay, absorbance-based, actives from ultra-high-throughput screening (AID 540297); assay type: functional
# T2 sequence (Q9GZU7 whole entry): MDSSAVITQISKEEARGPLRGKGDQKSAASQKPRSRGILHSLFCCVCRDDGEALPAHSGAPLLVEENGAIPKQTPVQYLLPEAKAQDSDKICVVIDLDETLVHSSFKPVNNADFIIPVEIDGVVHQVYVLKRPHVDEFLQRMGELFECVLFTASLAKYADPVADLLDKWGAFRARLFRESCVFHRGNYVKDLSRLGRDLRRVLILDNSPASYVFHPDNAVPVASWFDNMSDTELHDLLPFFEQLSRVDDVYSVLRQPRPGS
# [3] = cells; assay type: functional, cell-based
# [4] = cells; assay type: functional, cell-based; remark: listed apart in the source
# [5] = growth suppression of beta-catenin-knockout colon cells, dose response, cell-based, HCT116, human colon tumor (AID 1045); assay type: functional;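 further: HCT116 colon tumor cells with beta catenin knocked out; cells exposed to compound for 60 hours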
# [6] = growth suppression of PTEN-null colon cells, dose response, cell-based, HCT116 PTEN knockout (AID 1047); assay type: functional;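 further: HCT116 colon tumor cells with PTEN knocked out; cells exposed to compound for 60 hours before readout; potency for loss of cell viability measured by luminescence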
# [7] = Shn3 3'UTR reporter inhibitors, dose response, cell-based, Clone20 osteoblasts, firefly luciferase, cherry-picked (AID 624132); assay type: functional;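 further: firefly luciferase luminescence from reporter carrying the Shn3 3'UTR in osteoblasts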
# [8] = HepG2 cell cytotoxicity, dose response, cytotoxicity control for Shn3 inhibitor project, CellTiter-Glo, cherry-picked (AID 624134); assay type: functional, cell-based
# [9] = inhibitors of clade B AD8 Env fusion, dose response, cell-based, cherry-pick (AID 652062); assay type: functional;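 further: luciferase signal from cell-cell fusion driven by HIV-1 clade B AD8 Env; potency is for inhibitors of fusion seen as a drop in luminescence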
# [10] = biological target: T3, Sentrin-specific protease 8 (Homo sapiens, UniProt Q96LD8); assay type: functional
# T3 sequence (Q96LD8 whole entry): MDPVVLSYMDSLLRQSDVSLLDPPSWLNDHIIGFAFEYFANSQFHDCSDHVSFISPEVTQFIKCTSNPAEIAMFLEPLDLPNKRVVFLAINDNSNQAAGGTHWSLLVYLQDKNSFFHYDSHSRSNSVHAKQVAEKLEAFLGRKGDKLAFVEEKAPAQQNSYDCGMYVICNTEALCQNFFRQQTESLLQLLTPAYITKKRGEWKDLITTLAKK
# [11] = biological target: T3, Sentrin-specific protease 8; assay type: functional; remark: listed apart in the source
# [12] = control 3'UTR Renilla luciferase suppression, dose response, counter-screen for Shn3 inhibitor project, cell-based, Clone20-Shn3RL, cherry-picked (AID 624133); assay type: functional
# [13] = Luminescence Cell-Based Dose Retest to Confirm Inhibitors of Cancer Stem Cells. [Related pubchem assays (depositor defined):AID2717, AID2721]; assay type: functional; settings: Homo sapiens
# [14] = biological target: T4, Microphthalmia-associated transcription factor (Homo sapiens, UniProt O75030); experiment: TRPM1 promoter luciferase signal decrease, dose response, MITF inhibitor project, cell-based, SK-MEL-5, cherry-picked, set 3 (AID 493073); assay type: functional
# T4 sequence (O75030 whole entry): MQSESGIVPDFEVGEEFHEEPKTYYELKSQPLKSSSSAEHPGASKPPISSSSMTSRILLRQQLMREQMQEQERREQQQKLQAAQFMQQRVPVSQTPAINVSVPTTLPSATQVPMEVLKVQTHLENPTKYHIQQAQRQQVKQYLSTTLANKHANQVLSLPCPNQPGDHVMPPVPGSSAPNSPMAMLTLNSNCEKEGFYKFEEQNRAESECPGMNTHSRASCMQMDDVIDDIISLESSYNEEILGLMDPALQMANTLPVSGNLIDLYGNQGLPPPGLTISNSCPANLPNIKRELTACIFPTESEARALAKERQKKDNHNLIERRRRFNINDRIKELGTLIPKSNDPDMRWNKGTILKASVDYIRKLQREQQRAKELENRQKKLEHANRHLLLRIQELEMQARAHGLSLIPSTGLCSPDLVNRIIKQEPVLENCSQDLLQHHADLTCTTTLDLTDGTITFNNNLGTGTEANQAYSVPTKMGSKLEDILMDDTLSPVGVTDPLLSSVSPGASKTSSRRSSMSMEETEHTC
# [15] = inhibitors of SNCA 5'UTR-driven reporter translation, confirmation, H4 neuroglioma cells, luminescence (AID 1988); assay type: functional, cell-based
# [16] = tested on: H9c2; experiment: cells; assay type: functional, cell-based; settings: Rattus norvegicus, H9c2, Myocardium;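 further: confirmatory concentration-response retest of ultra-high-throughput screening hits for modulation of myocardial damage; cell death induced by hydrogen peroxide oxidative stress; compound pretreatment for 60 min then peroxide exposure for 2 h; potency is for protecting the cells against peroxide damage rather than for killing them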
# [17] = inhibitors of firefly luciferase expression or activity, dose response, H4 neuroglioma cells, luminescence (AID 1990); assay type: functional, cell-based
# [18] = Luminescence Cell-Based Dose Response HTS to Identify Inhibitors of 5'UTR Stem-Loop Driven Prion Protein mRNA Translation in H4 Neuroglioblastoma Cells. [Related pubchem assays: 1827 (Project Summary), 1813 (Primary HTS)]; assay type: functional
# [19] = biological target: T5, Rac GTPase-activating protein 1 (Homo sapiens, UniProt Q9H0H5); experiment: MgcRacGAP GTPase-activating activity inhibitors, confirmation, biochemical, ADP Hunter fluorescence, primary and confirmatory (AID 624330); assay type: functional
# T5 sequence (Q9H0H5 whole entry): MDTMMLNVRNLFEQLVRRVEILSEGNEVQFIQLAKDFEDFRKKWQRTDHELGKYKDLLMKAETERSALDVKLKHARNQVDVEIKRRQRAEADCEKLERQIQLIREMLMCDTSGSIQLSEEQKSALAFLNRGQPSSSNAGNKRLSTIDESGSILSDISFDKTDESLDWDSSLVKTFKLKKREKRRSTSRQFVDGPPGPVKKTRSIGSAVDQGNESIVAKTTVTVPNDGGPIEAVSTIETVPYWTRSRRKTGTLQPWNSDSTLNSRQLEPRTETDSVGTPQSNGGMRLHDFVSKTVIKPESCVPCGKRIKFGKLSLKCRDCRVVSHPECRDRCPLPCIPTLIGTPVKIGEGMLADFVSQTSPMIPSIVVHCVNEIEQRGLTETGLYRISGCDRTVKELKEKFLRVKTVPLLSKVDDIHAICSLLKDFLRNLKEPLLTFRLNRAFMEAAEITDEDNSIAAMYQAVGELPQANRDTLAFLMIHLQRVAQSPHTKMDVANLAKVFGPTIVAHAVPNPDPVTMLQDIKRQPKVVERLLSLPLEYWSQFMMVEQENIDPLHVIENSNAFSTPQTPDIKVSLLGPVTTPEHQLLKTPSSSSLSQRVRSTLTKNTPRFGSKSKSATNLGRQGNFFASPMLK
# [20] = biological target: T6, Heat shock factor protein 1 (Mus musculus, UniProt P38532); experiment: inhibition of MG132-induced HSE-luciferase signal, confirmation, cell-based, NIH3T3, luminescence, dose retest (AID 2382); assay type: functional;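 further: NIH3T3 fibroblasts with HSF1-driven luciferase reporter stressed by proteasome inhibitor MG132; luminescence from HSF1-driven luciferase expression after 8 hours of MG132 stress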
# T6 sequence (P38532 whole entry): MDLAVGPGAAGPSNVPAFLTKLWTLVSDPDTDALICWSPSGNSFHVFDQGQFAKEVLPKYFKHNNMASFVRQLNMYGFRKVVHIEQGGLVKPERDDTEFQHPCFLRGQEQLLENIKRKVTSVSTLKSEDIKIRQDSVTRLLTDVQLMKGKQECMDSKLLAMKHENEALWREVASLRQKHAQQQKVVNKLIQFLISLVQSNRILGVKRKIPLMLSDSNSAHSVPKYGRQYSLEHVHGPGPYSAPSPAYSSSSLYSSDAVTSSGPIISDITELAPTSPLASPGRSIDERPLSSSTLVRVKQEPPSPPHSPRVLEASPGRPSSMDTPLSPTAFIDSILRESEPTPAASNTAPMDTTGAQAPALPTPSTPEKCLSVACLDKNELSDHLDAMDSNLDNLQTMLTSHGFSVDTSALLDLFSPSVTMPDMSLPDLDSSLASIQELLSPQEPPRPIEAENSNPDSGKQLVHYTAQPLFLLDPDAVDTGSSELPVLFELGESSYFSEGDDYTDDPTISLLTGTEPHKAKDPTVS
structure (smiles),measurement,setting,value
Cn1cccc1/C=C1\CCc2ccccc2C1=O,IC50,[1],> 50 µM (not active)
Cc1ccc(C(=O)OCC(=O)c2ccc(CC(=O)N3CCOCC3)s2)cc1C,IC50,[2],5.01 µM (active)
Cc1ccc(-n2nc3c(=O)n(CC(=O)NCc4ccccc4)nc(C)c3c2C)cc1,EC50,[3],> 350 µM (not active)
same,EC50,[4],> 350 µM (not active)
COc1ccc(Nc2nc(N)nc(CN3CCC(Cc4ccccc4)CC3)n2)cc1,EC50,[5],23.5 µM (active)
same,EC50,[6],17.7 µM (active)
Cc1ccc(C(NC(=O)C2CCCCC2)c2c(O)ccc3ccccc23)cc1 (configuration not stated),EC50,[5],21.5 µM (active)
same,EC50,[6],17.4 µM (active)
COc1ccccc1N(CC(=O)NCc1ccco1)S(=O)(=O)c1ccc(C)cc1,IC50,[2],5.17 µM (active)
COc1cc(NC(c2ccccc2)c2ccccc2)cc(OC)c1OC,IC50,[1],> 50 µM (not active)
CC(=O)N(CCc1ccccc1)c1ccc2c(c1)C1CC2CCN1C(=O)OCc1ccccc1 (configuration not stated),AC50,[7],14.3 µM (active)
same,AC50,[8],> 70 µM (inactive)
Nc1ccn([C@@H]2O[C@H](C(=O)NCc3ccc4c(c3)OCO4)[C@@H](O)[C@H]2O)c(=O)n1,AC50,[9],0.723 µM (active)
O=C(/C=C/c1ccco1)N1CCN(S(=O)(=O)c2ccccc2)CC1,IC50,[2],4.94 µM (active)
CC(C)(C)OC(=O)NCc1ccc(CNC(=O)c2nc[nH]c2C(=O)NCc2ccc(CNC(=O)OC(C)(C)C)cc2)cc1,AC50,[7],5.89 µM (active)
same,AC50,[8],> 70 µM (inactive)
Cc1ccc(C(=O)N2C(=S)C(c3ccc(F)cc3)=NC23CCN(C)CC3)cc1,IC50,[10],15 µM (active)
same,IC50,[11],> 100 µM (inactive)
COc1ccccc1N=C(N)Nc1nc(O)cc(CSc2ccc(C)cc2)n1,AC50,[7],2.95 µM (active)
same,AC50,[12],12.4 µM (active)
same,AC50,[8],59.8 µM (active)
Cn1nc(C(C)(C)C)cc1C(=O)N1CCCCC1c1cc(C(=O)Nc2ccc(F)c(Cl)c2)no1 (configuration not stated),AC50,[7],3.04 µM (active)
same,AC50,[12],5.06 µM (active)
same,AC50,[8],5.09 µM (active)
O=C(/C=C/c1ccc(Cl)cc1)NC(=S)Nc1ccccc1C(=O)O,IC50,[2],8.66 µM (active)
CC(NC(=O)Nc1cccc([N+](=O)[O-])c1)(C(F)(F)F)C(F)(F)F,EC50,[5],12.3 µM (active)
same,EC50,[6],12 µM (active)
CCC1CCc2sc(C(=O)NCc3ccccn3)cc2C1 (configuration not stated),EC50,[3],> 350 µM (not active)
same,EC50,[4],52.4 µM (active)
COc1ccc(/C=N/NC(=O)c2cccc(NC(=O)c3ccc(Cl)cc3)c2)c(OC)c1,IC50,[2],6.27 µM (active)
CCS(=O)(=O)N1CCCC(C(=O)N2CCc3ccccc3C2)C1 (configuration not stated),IC50,[10],17.7 µM (active)
same,IC50,[11],71.7 µM (inactive)
Cc1cc(N2CCOCC2)nc2ccc(NC(=S)N3CCCCC3C)cc12 (configuration not stated),IC50,[1],> 50 µM (not active)
NC(=S)NNc1cccc2cccnc12,IC50,[10],6 µM (active)
same,IC50,[11],7.91 µM (active)
COc1ccc(C2c3ccc4ccccc4c3Oc3ncn(Cc4ccco4)c(=N)c32)cc1OC (configuration not stated),EC50,[5],8.96 µM (active)
same,AC50,[13],3.94 µM (active)
same,EC50,[6],7.09 µM (active)
Cc1cc(S(=O)(=O)N2CCN(Cc3ccc4c(c3)OCO4)CC2)cc(C)c1N1CCCC1=O,EC50,[5],36 µM (active)
same,EC50,[6],45.7 µM (active)
CC(Oc1ccc(F)cc1)C(=O)Nc1nc(-c2ccccn2)cs1 (configuration not stated),AC50,[14],9.42 µM (active)
same,EC50,[15],> 120 µM (not active)
same,IC50,[16],> 79 µM (inactive)
same,EC50,[17],> 120 µM (not active)
same,EC50,[18],10.2 µM (active)
OCCC1CN(Cc2c(O)ccc3ccccc23)CCN1CCc1ccccc1 (configuration not stated),IC50,[1],> 50 µM (not active)
Cc1ccc(O)c(/C=N/c2ccc3[nH]ncc3c2)c1,IC50,[19],27.7 µM (active)
same,IC50,[1],> 50 µM (not active)
COC(=O)CCC(=O)OC1(C)C(=O)C=C2C=C3CCCN3C=C2C1=O (configuration not stated),IC50,[10],7.67 µM (active)
same,IC50,[11],6.06 µM (active)
CN1CCN(CC(=O)n2c3c(c4ccccc42)CCCC3)CC1,EC50,[20],> 195 µM (not active)
same,IC50,[10],16.6 µM (active)
same,IC50,[11],> 100 µM (inactive)
O=C(O)c1ccc(N2C(=O)CSC2=S)cc1,EC50,[3],> 350 µM (not active)
same,EC50,[4],> 350 µM (not active)
CN(c1ccc(C(=O)N2CCc3ccccc3C2)cc1)S(C)(=O)=O,IC50,[10],13.1 µM (active)
same,IC50,[11],90.5 µM (inactive)
